{"source": "patent US12016884B2", "about": "“Adipose derived stem cell exosomes and uses thereof” (UNIVERSITY OF SOUTH FLORIDA, priority 2016, dated 2024)", "system": "human dermal fibroblast (HDF) cells", "assay": "ECIS (electric cell-substrate impedance sensing) wound healing assay", "type": "cell-based", "settings": "Dynasore about 50 μM added to media with 20 μg exosomes (FIG. 9)", "procedure": "ECIS assays: The ECIS or electric cell-substrate impedance sensing instrument (Applied Biophysics) recorded the impedance on electrically wounded hHDF to detect the migratory response. Briefly, 200 μl of cell suspension were seeded per well of 8W1E ECIS array (5×10^4 cells per well) coated with about 1% gelatin. After cells were confluent in the incubator, the ECIS chambers were mounted to the ECIS system. […] Arrays were then washed with medium under the microscope to remove any dead cells on the electrodes. Thereafter, the wound healing process was determined in real-time by measuring the recovery of electrical impedance, an indicator of the surrounding viable fibroblast cells migrating into the wounded area. […]\nBriefly, HDF cells on the micro-electrods of the ECIS wells were killed with a high electrical voltage. Subsequently, the migration of viable cells onto the wounded microelectrodes was measured in real-time by electrical resistance in the presence of bFGF ([…]), about 10 μg/mL exosomes, and about 20 μg/mL exosome respectively. The percentage of recovery was calculated by the difference in the resistance of each time point and the resistance of the first time point after wounding divided by the resistance before the wounding. […]", "note": "Entries after “also recorded” stand apart in the source; their conditions may differ."}
{"smiles": "O=C(N/N=C/c1ccc(O)c(O)c1)c1cc2ccccc2cc1O", "note": "[Dynasore]", "values": [{"measurement": "effect on exosome-driven cell migration in ECIS", "value": "blocked the cell migratory effect of exosomes; also recorded: greatly attenuate cell migration; also recorded: inhibition of migration"}]}
